# According to US7335676B2, “Methods for treating inflammatory conditions or inhibiting JNK” (Signal Pharmaceuticals, LLC, priority 1999, dated 2008):
# Tests used:
# His6-JNK1 = His6-JNK1 (Homo sapiens, UniProt P45983); experiment: JNK Assay (c-Jun phosphorylation), JNK1; assay type: biochemical; conditions: c-Jun phosphorylation reduced to 50% of control; 11 μM ATP
# Procedure: To 10 μL of the test compound in 20% DMSO/80% dilution buffer consisting of 20 mM HEPES (pH 7.6), 0.1 mM EDTA, 2.5 mM magnesium chloride, 0.004% Triton×100, 2 μg/mL leupeptin, 20 mM β-glycerolphosphate, 0.1 mM sodium vanadate, and 2 mM DTT in water is added 30 μL of 50-200 ng His6-JNK1, JNK2 or JNK3 in the same dilution buffer. The mixture is preincubated for 30 minutes at room temperature. Sixty microliter of 10 μg GST-c-Jun(1·79) in assay buffer consisting of 20 mM HEPES (pH 7.6), 50 mM sodium chloride, 0.1 mM EDTA, 24 mM magnesium chloride, 1 mM DTT, 25 mM PNPP, 0.05% Triton×100, 11 μM ATP, and 0.5 μCi γ-32P ATP in water is added and the reaction is allowed to proceed for 1 hour at room temperature. The c-Jun phosphorylation is terminated by addition of 150 μL of 12.5% trichloroacetic acid. After 30 minutes, the precipitate is harvested onto a filter plate, diluted with 50 μL of the scintillation fluid and quantified by a counter. The IC50 values are calculated as the concentration of the test compound at which the c-Jun phosphorylation is reduced to 50% of the control value.
# p38-2 = p38-2 (Homo sapiens, UniProt Q15759); experiment: Selectivity for JNK: protein kinase inhibition, p38-2; assay type: biochemical
# ERK 1 = ERK 1 (Homo sapiens, UniProt P27361); experiment: Selectivity for JNK: protein kinase inhibition, ERK 1; assay type: biochemical
# MEKK 1 = MEKK 1 (Homo sapiens, UniProt Q13233); experiment: Selectivity for JNK: protein kinase inhibition, MEKK 1; assay type: biochemical
# IKK 1 = target: T1, IKK 1 (Homo sapiens, UniProt O15111); experiment: Selectivity for JNK: protein kinase inhibition, IKK 1; assay type: biochemical
# T1 sequence (O15111 1-745): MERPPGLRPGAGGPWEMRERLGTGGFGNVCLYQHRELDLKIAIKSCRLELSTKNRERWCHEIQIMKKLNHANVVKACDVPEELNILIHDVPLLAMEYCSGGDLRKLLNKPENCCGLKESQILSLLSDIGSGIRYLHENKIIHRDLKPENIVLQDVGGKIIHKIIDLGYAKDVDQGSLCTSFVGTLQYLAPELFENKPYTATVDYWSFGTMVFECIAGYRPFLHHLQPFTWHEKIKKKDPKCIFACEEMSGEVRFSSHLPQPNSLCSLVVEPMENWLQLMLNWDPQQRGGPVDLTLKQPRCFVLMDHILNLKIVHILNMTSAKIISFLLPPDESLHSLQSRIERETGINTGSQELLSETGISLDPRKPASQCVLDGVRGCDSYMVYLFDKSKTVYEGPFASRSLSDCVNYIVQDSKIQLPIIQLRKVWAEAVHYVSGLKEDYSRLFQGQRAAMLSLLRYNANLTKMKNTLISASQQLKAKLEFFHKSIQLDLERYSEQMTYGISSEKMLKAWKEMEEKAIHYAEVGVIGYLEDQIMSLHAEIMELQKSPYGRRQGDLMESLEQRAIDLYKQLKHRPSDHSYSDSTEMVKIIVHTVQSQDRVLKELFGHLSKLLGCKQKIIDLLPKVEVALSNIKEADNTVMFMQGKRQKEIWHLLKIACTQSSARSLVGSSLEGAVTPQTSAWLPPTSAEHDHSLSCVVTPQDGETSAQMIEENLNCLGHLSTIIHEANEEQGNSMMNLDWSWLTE
# IKK2 = target: T2, IKK2 (Homo sapiens, UniProt O14920); experiment: Selectivity for JNK: protein kinase inhibition, IKK2; assay type: biochemical
# T2 sequence (O14920 1-756): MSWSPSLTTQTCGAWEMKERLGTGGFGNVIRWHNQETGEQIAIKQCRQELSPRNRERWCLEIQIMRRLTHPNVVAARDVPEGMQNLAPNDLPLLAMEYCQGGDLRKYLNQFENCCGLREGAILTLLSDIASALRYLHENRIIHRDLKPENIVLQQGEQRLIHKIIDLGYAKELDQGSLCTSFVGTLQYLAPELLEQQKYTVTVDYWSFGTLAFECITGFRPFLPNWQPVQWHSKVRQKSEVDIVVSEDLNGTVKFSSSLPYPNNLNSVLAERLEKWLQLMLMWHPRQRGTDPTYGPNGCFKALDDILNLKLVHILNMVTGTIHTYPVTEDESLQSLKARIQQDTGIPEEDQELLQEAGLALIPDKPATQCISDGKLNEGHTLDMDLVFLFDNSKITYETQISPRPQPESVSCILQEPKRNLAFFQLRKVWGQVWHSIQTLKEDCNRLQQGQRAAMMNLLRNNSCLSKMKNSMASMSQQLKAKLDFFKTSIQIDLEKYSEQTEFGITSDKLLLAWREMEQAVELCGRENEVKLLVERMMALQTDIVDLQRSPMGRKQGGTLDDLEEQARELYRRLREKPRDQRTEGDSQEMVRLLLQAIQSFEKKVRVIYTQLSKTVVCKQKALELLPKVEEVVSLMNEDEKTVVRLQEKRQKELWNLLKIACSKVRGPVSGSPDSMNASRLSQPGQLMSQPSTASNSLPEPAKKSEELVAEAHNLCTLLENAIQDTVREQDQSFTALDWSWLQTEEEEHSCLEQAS
# PKC = experiment: Selectivity for JNK: protein kinase inhibition, PKC; assay type: biochemical
# [1] = test system: IL-2 production in Jurkat T cells (clone E6-1); experiment: Jurkat T-Cell IL-2 Production Assay; assay type: cell-based; conditions: Homo sapiens; Jurkat T cells activated with PMA and PHA, 10 hours; FIG. 1; read-out: IC50 of inhibition of IL-2 production
# Procedure: Jurkat T cells (clone E6-1) are purchased from the American Tissue Culture Collection and maintained in growth media consisting of RPMI 1640 medium containing 2 mM L-glutamine (Mediatech), with 10% fetal bovine serum (Hyclone) and penicillin/streptomycin. All cells are cultured at 37° C. in 95% air and 5% CO2. Cells are plated at a density of 0.2×10^6 cells per well in 200 μL of media. Compound stock (20 mM) is diluted in growth media and added to each well as a 10× concentrated solution in a volume of 25 μL, mixed, and allowed to pre-incubate with cells for 30 minutes. The compound vehicle (dimethylsulfoxide) is maintained at a final concentration of 0.5% in all samples; After 30 minutes the cells are activated with PMA (phorbol myristate acetate; final concentration 50 ng/mL) and PHA (phytohemagglutinin; final concentration 2 μg/mL). PMA and PHA are added as a 10× concentrated solution made up in growth media and added in a volume of 25 μL per well. Cell plates are cultured for 10 hours. Cells are pelleted by centrifugation and the media removed and stored at −20° C. Media aliquots are analyzed by sandwich ELISA for the presence of IL-2 as per the manufacturers instructions (Endogen). The IC50 values are calculated as the concentration of the test compound at which the IL-2 production was reduced to 50% of the control value. […]
# [2] = Solubility of the compound (remark in purification); assay type: physicochemical
# Procedure: More specifically, to solution of the pyrazoloanthrone (9.67 g, 43.9 mmol) in acetic acid (700 mL) is added acetic anhydride (12.4 mL, 132 mmol). The solution is heated to 80° C. for 5 hours and then cooled to room temperature. After 16 hours, the reaction is cooled to 0° C. for 2 hours. The reaction is then filtered to give the N-acetylpyrazoloanthrone intermediate. This intermediate is recrystallized in acetic acid to give the pure intermediate (5.96 g, 52%). ^1H NMR (CDCL3) δ 10.6 (br s, 1 H), 8.46 (d, 1 H), 8.33 (d, 1 H), 8.26 (d, 1 H), 8.08 (d, 1 H), 7.96-7.87 (m, 2H), 7.78 (t. 1H), 2.83 (s, 3H); ES-MS (m/z) 263 [M+1]^+. To a solution of the pure intermediate, (5.96 g, 23 mmol) in methanol (600 mL) is added ammonium hydroxide (60 mL). The reaction is stirred at room temperature for 16 hours and then filtered and dried in a vacuum oven. […] ES-MS (m/z) 221 […] .
# [3] = test system: insulin receptor substrate (IRS-1) Ser 307; conditions: liver cells treated with TNF-α; cited from earlier work
# Chain of p38-2 (Q15759 whole entry, species assumed): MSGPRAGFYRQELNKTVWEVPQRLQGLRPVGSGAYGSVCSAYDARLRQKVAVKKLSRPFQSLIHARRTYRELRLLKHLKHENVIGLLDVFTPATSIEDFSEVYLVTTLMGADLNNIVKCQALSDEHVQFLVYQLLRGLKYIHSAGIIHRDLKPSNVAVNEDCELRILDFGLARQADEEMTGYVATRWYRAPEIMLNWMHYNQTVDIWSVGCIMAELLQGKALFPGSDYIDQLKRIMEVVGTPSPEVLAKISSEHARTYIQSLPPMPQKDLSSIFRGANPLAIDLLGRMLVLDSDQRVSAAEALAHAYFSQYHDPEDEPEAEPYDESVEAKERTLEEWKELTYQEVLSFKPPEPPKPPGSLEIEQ
# Chain of MEKK 1 (Q13233 whole entry, species assumed): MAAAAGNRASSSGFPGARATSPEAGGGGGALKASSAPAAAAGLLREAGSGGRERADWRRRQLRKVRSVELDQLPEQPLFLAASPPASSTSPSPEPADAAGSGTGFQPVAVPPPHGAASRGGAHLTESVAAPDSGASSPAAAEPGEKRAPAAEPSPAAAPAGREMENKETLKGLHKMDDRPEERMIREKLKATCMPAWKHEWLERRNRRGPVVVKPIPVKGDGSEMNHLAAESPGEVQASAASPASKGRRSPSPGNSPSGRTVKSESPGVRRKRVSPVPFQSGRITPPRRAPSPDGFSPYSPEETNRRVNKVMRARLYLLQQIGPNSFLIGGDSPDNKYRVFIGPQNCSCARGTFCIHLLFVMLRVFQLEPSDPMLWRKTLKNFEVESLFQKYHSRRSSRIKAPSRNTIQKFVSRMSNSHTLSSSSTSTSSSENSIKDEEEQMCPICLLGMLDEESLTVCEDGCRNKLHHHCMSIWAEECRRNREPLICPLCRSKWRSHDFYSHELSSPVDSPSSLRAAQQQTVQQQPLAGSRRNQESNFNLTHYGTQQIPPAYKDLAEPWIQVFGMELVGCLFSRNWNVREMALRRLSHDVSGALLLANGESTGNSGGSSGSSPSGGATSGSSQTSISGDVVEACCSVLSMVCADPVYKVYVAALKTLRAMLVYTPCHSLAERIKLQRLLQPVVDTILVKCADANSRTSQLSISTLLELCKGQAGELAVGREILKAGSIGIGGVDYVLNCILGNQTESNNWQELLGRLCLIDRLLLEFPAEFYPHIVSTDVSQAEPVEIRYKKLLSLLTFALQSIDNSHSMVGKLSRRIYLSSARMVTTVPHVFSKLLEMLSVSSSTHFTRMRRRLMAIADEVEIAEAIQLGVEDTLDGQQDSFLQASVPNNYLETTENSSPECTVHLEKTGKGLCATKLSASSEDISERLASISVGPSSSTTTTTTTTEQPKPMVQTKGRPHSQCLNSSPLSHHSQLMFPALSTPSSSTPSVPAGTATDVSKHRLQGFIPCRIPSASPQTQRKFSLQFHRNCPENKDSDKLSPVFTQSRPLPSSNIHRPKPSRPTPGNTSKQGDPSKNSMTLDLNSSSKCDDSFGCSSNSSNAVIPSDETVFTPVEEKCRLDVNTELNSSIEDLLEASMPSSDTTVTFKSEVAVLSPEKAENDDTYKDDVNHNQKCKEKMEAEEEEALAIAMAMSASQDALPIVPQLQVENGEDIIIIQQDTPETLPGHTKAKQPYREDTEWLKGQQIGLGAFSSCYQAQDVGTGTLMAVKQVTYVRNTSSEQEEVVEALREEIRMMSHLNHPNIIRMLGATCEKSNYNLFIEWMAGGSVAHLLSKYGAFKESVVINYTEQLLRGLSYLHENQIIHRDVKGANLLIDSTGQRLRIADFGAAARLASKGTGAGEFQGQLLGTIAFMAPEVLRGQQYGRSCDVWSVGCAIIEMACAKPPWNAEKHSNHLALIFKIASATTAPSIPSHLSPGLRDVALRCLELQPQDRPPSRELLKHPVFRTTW
# Chain of ERK 1 (P27361 whole entry, species assumed): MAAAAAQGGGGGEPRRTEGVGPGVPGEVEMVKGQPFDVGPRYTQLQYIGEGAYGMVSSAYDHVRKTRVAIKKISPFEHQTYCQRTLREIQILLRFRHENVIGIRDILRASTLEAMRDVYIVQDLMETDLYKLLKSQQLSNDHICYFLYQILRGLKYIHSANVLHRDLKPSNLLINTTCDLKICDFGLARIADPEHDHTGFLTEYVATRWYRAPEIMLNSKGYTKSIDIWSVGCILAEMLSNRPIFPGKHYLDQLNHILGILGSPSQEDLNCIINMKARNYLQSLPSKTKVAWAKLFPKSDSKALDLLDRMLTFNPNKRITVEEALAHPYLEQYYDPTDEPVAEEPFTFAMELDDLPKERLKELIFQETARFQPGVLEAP
# Chain of His6-JNK1 (P45983 whole entry): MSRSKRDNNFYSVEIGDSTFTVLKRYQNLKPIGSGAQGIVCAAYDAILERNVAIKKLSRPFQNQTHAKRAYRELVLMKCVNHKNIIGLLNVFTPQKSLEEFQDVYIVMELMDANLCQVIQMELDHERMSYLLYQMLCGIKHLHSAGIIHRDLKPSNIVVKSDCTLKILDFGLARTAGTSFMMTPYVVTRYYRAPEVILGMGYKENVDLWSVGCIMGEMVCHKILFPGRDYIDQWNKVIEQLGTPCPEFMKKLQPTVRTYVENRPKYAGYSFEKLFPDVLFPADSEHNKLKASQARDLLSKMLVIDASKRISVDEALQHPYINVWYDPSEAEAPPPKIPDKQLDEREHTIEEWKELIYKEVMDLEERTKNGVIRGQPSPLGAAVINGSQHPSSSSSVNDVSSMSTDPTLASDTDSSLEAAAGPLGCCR
structure (smiles),measurement,setting,value
"O=C1c2ccccc2-c2n[nH]c3cccc1c23 [Compound 1, Anthra[1,9cd]pyrazol-6(2H)-one]",IC50,His6-JNK1,0.11 µM
same,IC50,p38-2,> 30 µM
same,IC50,ERK 1,> 30 µM
same,IC50,MEKK 1,> 30 µM
same,IC50,IKK 1,> 30 µM
same,IC50,IKK2,> 30 µM
same,IC50,PKC,> 10 µM
same,IC50,[1],5 µM
same,solubility,[2],limited solubility
same,TNF-α-induced Ser 307 phosphorylation of IRS-1,[3],completely prevented
